Data: US20230295201A1 (Gilead Sciences, Inc., priority 2020, published 2023)
Read-outs that look alike come from different tables or passages of the source.

How the values were obtained:
Format in all cases: cell-based
[1] = tested on: DENV2 replicon; assay: DENV-2 Huh-7 Rep EC50 (replicon luminescence); conditions: read-out: DENV-2 Huh-7 Rep EC50
How it was run: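 EC50 derived from luminescence dose-response, normalised to DMSO-only 0% inhibition wells, after 1.5 h with EnduRen substrate. Compounds were first exposed for 48 h at 37° C to DENV2 replicon Huh-7 cells (5,000/well).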

[2] = tested on: RSV strain A2; assay: RSV HEp-2 EC50 (infectious cytopathic cell protection assay); conditions: read-out: RSV HEp-2 EC50
How it was run: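 Percent inhibition of RSV-induced cytopathic effect came from remaining cell viability (CellTiter-Glo luminescence) after 4 days at 37° C. Compounds in 3-fold serial dilutions were exposed to an infectious mix of titered A2 virus and HEp-2 cells at 50,000/ml, with 0% and 100% inhibition control standards.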

[3] = tested on: Dengue serotype 2 New Guinea C (NGC) strain; assay: DENV-2 Huh-7 EC50 (qPCR in Huh7 cells)
Method: Huh7 (Human hepatocarcinoma 7) cells were maintained in 10% FCS-containing DMEM complete media. On the day of the assay, cells were trypsinized (0.1% Trypsin-EDTA), washed and infected for 2 hours in serum-free DMEM with Dengue serotype 2 New Guinea C (NGC) strain at MOI=0.1 with gentle agitation at 37° C. After 2 hours, cells were washed with serum-free media and suspended in 10% FCS-containing DMEM (Gibco, supplemented with sodium pyruvate, NEAA, Penicillin-Streptomycin). 10^5 cells were plated in triplicate in 96-well plates with compounds dispensed at graded doses (Hewlett-Packard D300 Digital Dispenser). All wells were normalized to 0.25% DMSO. At 48 hours, cells were washed with 1×PBS and all supernatants removed. Total RNA was extracted using RNEasy 96 plates (Qiagen) and used to generate first-strand cDNA using XLT cDNA 5×Supermix (QuantaBio). cDNA was used as a template in a Taqman qPCR duplex reaction specific to DENV2 viral and GAPDH gene expression. EC50 values were determined using Prism Graphpad software, with normalization to a positive control and no compound negative control wells.

[4] = tested on: RSV A2; assay: RSV NHBE EC50 (RSV A2 antiviral assay in normal human bronchial epithelial cells); conditions: read-out: RSV NHBE EC50
[5] = tested on: HRV16; assay: HRV16 HELA EC50 (cytopathic effect in H1-HeLa cells)
How it was run: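 Read-out is luminescent cell viability (CellTiter-Glo) after 96 h of infection at 33 °C, scaled between uninfected and infected-untreated wells. Before infection with titrated virus, compounds went onto H1-HeLa cells as triplicate 3-fold dilution series.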

[6] = Dengue virus, DENV2, Huh-7, 48 h, Huh-7 replicon cells, 48 hours
[7] = human respiratory syncytial virus, HEp-2, 96 h, HEp-2 cells, RSV A2, 4 days
[8] = Dengue virus, DENV2, Huh-7, 48 h
[9] = human respiratory syncytial virus, NHBE, 96 h, NHBE cells, RSV A2, 4 days
[10] = human respiratory syncytial virus, 96 h, HEp-2 cells, RSV A2, 4 days
[11] = H1-HeLa cells, 96 h, 33° C.; read-out: HRV16 HELA EC50
[12] = human respiratory syncytial virus, 96 h, NHBE cells, RSV A2, 4 days
[13] = 96 h, H1-HeLa cells, 33° C., read-out: HRV16 HELA EC50

SMILES | EC50 [1, 6] | EC50 [2, 7] | EC50 [3, 8] | EC50 [4, 9] | EC50 [5, 13] | other results
CCOC(=O)[C@H](C)NP(=O)(OC[C@@]1(C#N)O[C@@H](c2ccc3c(N)ncnn23)[C@H](O)[C@@H]1O)Oc1ccc(C(C)(C)C)cc1 (mixture of isomers) [Example 263, Ethyl ((((2R,3S,4R,5S)-5-(4-aminopyrrolo[2,1-f][1,2,4]triazin-7-yl)-2-cyano-3,4-dihydroxytetrahydrofuran-2-yl)methoxy)(4-(tert-butyl)phenoxy)phosphoryl)-L-alaninate] | 8030 nM | 35 nM | 569 nM | – | – | –
COCCCOC(=O)[C@H](C)NP(=O)(OC[C@@]1(C#N)O[C@@H](c2ccc3c(N)ncnn23)[C@H](O)[C@@H]1O)Oc1ccccc1 (single isomer, unassigned) [Example 59] | – | – | – | – | – | EC50 ([1]; Huh-7 replicon cells, 48 hours): 56500 nM; EC50 ([3]; 48 hours): 4650 nM; EC50 ([4]; NHBE cells, RSV A2, 4 days): 111 nM
C[C@H](NP(=O)(OC[C@@]1(C#N)O[C@@H](c2ccc3c(N)ncnn23)[C@H](O)[C@@H]1O)Oc1ccccc1)C(=O)OC1CCCCCC1 (single isomer, unassigned) [Example 135] | – | – | 1390 nM | 66 nM | – | EC50 ([2]; HEp-2 cells, RSV A2, 4 days): 233 nM
CCOC(=O)[C@H](C)NP(=O)(OC[C@@]1(C#N)O[C@@H](c2ccc3c(N)ncnn23)[C@H](O)[C@@H]1O)Oc1ccc(C(C)(C)C)cc1 (single isomer, unassigned) [Example 265] | – | – | 390 nM | – | – | EC50 ([2]; HEp-2 cells, RSV A2, 4 days): 215 nM
C[C@H](NP(=O)(N[C@@H](C)C(=O)OCc1ccccc1)OC[C@@]1(C#N)O[C@@H](c2ccc3c(N)ncnn23)[C@H](O)[C@@H]1O)C(=O)OCc1ccccc1 [Example 219] | – | – | – | – | – | EC50 [1, 8]: > 50000 nM; EC50 [2, 10]: 1760 nM; EC50 [5, 11]: 6040 nM; EC50 [4, 12]: 178 nM
CCC(CC)COC(=O)[C@H](CC)NP(=O)(N[C@@H](CC)C(=O)OCC(CC)CC)OC[C@@]1(C#N)O[C@@H](c2ccc3c(N)ncnn23)[C@H](O)[C@@H]1O [Example 220] | – | – | – | – | – | EC50 [1, 8]: 29000 nM; EC50 [2, 10]: 4260 nM; EC50 [5, 11]: 10600 nM; EC50 [4, 12]: 340 nM
CCCCOC(=O)CC[C@H](NP(=O)(OC[C@@]1(C#N)O[C@@H](c2ccc3c(N)ncnn23)[C@H](O)[C@@H]1O)Oc1ccccc1)C(=O)OC1CCCCC1 (stereo partly drawn) [Example 229, 5-butyl 1-cyclohexyl ((((2R,3S,4R,5S)-5-(4-aminopyrrolo [2,1-f][1,2,4]triazin-7-yl)-2-cyano-3,4-dihydroxytetrahydrofuran-2-yl)methoxy)(phenoxy)phosphoryl)-L-glutamate] | 31400 nM | > 13300 nM | – | > 5000 nM | > 40200 nM | –
CCCC(=O)Nc1ncnn2c([C@@H]3O[C@](C#N)(CO[P@@](=O)(N[C@@H](C)C(=O)OC4CCCCC4)Oc4ccccc4)[C@@H](O)[C@H]3O)ccc12 [Example 231, Cyclohexyl ((S)-(((2R,3S,4R,5S)-5-(4-butyramidopyrrolo[2,1-f][1,2,4]triazin-7-yl)-2-cyano-3,4-dihydroxytetrahydrofuran-2-yl)methoxy)(phenoxy)phosphoryl)-L-alaninate] | 14700 nM | 152 nM | – | 190 nM | 1200 nM | –
CC(C)OC(=O)[C@H](C)N[P@](=O)(OC[C@@]1(C#N)O[C@@H](c2ccc3c(NC(=O)C(C)C)ncnn23)[C@H](O)[C@@H]1O)Oc1ccccc1 [Example 234, isopropyl ((S)-(((2R,3S,4R,5S)-2-cyano-3,4-dihydroxy-5-(4-isobutyramidopyrrolo[2,1-f][1,2,4]triazin-7-yl)tetrahydrofuran-2-yl)methoxy)(phenoxy)phosphoryl)-L-alaninate] | 36400 nM | 696 nM | – | 2410 nM | 6870 nM | –
CC(C)C(=O)Nc1ncnn2c([C@@H]3O[C@](C#N)(CO[P@@](=O)(N[C@@H](C)C(=O)OC4CCCCC4)Oc4ccccc4)[C@@H](O)[C@H]3O)ccc12 [Example 235, cyclohexyl ((S)-(((2R,3S,4R,5S)-2-cyano-3,4-dihydroxy-5-(4-isobutyramidopyrrolo[2,1-f][1,2,4]triazin-7-yl)tetrahydrofuran-2-yl)methoxy)(phenoxy)phosphoryl)-L-alaninate] | 3960 nM | 114 nM | – | 510 nM | 1100 nM | –
CC(C)OC(=O)[C@H](C)N[P@](=O)(OC[C@@]1(C#N)O[C@@H](c2ccc3c(N)ncnn23)[C@@H]2OC(=O)O[C@@H]21)Oc1ccccc1 [Example 236, isopropyl ((S)-(((3aS,4R,6S,6aS)-6-(4-aminopyrrolo[2,1-f][1,2,4]triazin-7-yl)-4-cyano-2-oxotetrahydrofuro[3,4-d][1,3]dioxol-4-yl)methoxy) (phenoxy)phosphoryl)-L-alaninate] | 17900 nM | 189 nM | – | 949 nM | 741 nM | –
CC(C)[C@H](N)C(=O)Nc1ncnn2c([C@@H]3O[C@](C#N)(CO[P@@](=O)(N[C@@H](C)C(=O)OC4CCCCC4)Oc4ccccc4)[C@@H](O)[C@H]3O)ccc12 [Example 237, cyclohexyl ((S)-(((2R,3S,4R,5S)-5-(4-((S)-2-amino-3-methylbutanamido)pyrrolo[2,1-f][1,2,4]triazin-7-yl)-2-cyano-3,4-dihydroxytetrahydrofuran-2-yl)methoxy)(phenoxy)phosphoryl)-L-alaninate] | > 50000 nM | > 38400 nM | – | > 10800 nM | > 50000 nM | –
CCC(CC)COC(=O)[C@H](C)OP(=O)(OC[C@@]1(C#N)O[C@@H](c2ccc3c(N)ncnn23)[C@H](O)[C@@H]1O)Oc1ccccc1 (stereo partly drawn) [Example 244, 2-ethylbutyl (2S)-2-(((((2R,3S,4R,5S)-5-(4-aminopyrrolo [2,1-f][1,2,4]triazin-7-yl)-2-cyano-3,4-dihydroxytetrahydrofuran-2-yl)methoxy)(phenoxy)phosphoryl)oxy)propanoate] | – | – | – | – | – | EC50 [1, 8]: 36700 nM; EC50 ([2]; human respiratory syncytial virus, HEp-2, 96 h): 4950 nM; EC50 ([5]; 96 h, read-out: HRV16 HELA EC50): 33600 nM; EC50 ([4]; human respiratory syncytial virus, NHBE, 96 h): > 5000 nM
C[C@H](NP(=O)(OC[C@@]1(C#N)O[C@@H](c2ccc3c(N)ncnn23)[C@H](O)[C@@H]1O)Oc1ccccc1)C(=O)OCC(CO)CO (stereo partly drawn) [Example 245, 3-hydroxy-2-(hydroxymethyl)propyl ((((2R,3S,4R,5S)-5-(4-aminopyrrolo[2,1-f][1,2,4]triazin-7-yl)-2-cyano-3,4-dihydroxytetrahydrofuran-2-yl)methoxy)(phenoxy)phosphoryl)-L-alaninate] | > 50000 nM | 3790 nM | – | > 5000 nM | 29000 nM | –
C[C@H](NP(=O)(OC[C@@]1(C#N)O[C@@H](c2ccc3c(N)ncnn23)[C@H](O)[C@@H]1O)Oc1ccccc1)C(=O)OCC1(C)CC1 (stereo partly drawn) [Example 257, (1-methylcyclopropyl)methyl ((((2R,3S,4R,5S)-5-(4-aminopyrrolo[2,1-f][1,2,4]triazin-7-yl)-2-cyano-3,4-dihydroxytetrahydrofuran-2-yl)methoxy)(phenoxy)phosphoryl)-L-alaninate] | 5480 nM | 29 nM | 2210 nM | – | – | –
C[C@H](NP(=O)(OC[C@@]1(C#N)O[C@@H](c2ccc3c(N)ncnn23)[C@H](O)[C@@H]1O)Oc1ccccc1)C(=O)OCC(C)(C)C(F)(F)F (stereo partly drawn) [Example 260, 3,3,3-trifluoro-2,2-dimethylpropyl ((((2R,3S,4R,5S)-5-(4-aminopyrrolo[2,1-f][1,2,4]triazin-7-yl)-2-cyano-3,4-dihydroxytetrahydrofuran-2-yl)methoxy)(phenoxy)phosphoryl)-L-alaninate] | 9950 nM | 66 nM | 682 nM | – | – | –
